The subject of one series is phospho-Tau (Ser199). Description: Tau phosphorylation (Ser199) ELISA in SH-SY5Y cells. The series is classed as cell-based. The note with it: Homo sapiens, read-out: p-Tau Inhibition ELISA EC50 SH-SY5Y. (In general: An ELISA detects its analyte on a solid surface through an enzyme-linked reagent.)
Series [1] deals with T1, GSK3β (Homo sapiens, UniProt P49841). Description: biochemical.
Series [2] deals with T2, GSK3α (Homo sapiens, UniProt P49840). The note with it: for GSK3α fold selectivity: GSK3α over GSK3β; for IC50: read-out: Caliper Assay, GSK3α IC50.
Procedure: (§1) Reactions were terminated by the addition of 10 mM EDTA. Substrate and product were separated electrophoretically and fluorescence intensity of the substrate and product was determined by Labchip EZ Reader II (Caliper Life Sciences, MA). The kinase activity was measured as percent conversion. The reactions were performed in duplicate for each sample. […] The results were analyzed by Genedata Assay Analyzer. The percent inhibition was plotted against the compound concentration and the IC50 value was determined from the logistic dose-response curve fitting.
Another series relates to TCF/LEF reporter. Briefly: cells. Particulars: Homo sapiens, HEK293, read-out: TCF/LEF EC50, HEK293 cells.
The test system of series [3] is β-catenin nuclear translocation. Description: β-Catenin nuclear localization assay in U2-OS cells. The class given is cell-based. The note with it: Homo sapiens, U2OS, read-out: beta-Catenin translocation EC50.
Procedure: U2-OS cells stably expressing two complimentary β-galactosidase fragments (one part on β-Catenin and the other constitutively expressed in the cell nucleus) were maintained in DMEM F12 supplemented with 10% FBS. When β-catenin translocates to the nucleus, the complimentary fragments form a complete β-galactosidase, the amount of which is then quantified by β-galactosidase activity (DiscoveRx). Cells were seeded in a 384-well CulturPlate (Perkin Elmer, Boston, Mass.) with 10,000 per well in 20 μL DMEM F12 containing 10% FCS, 100 U/ml penicillin and 100 m/mL streptomycin. After overnight incubation at 37° C., cells were stimulated with 100 nL test compound/well and then returned to the incubator for 6 h. Cells were disrupted using 12 μL substrate-containing lysis buffer from the PathHunter Detection Kit in the formulation specified by the supplier (DiscoveRx). Plates were incubated in the dark for 1 h at room temperature before measurement of β-galactosidase activity (luminescence) on an EnVision plate reader (PerkinElmer, Waltham, Mass.). Distance between plate and detector was 0.2 mm. Measurement time(s)=0.1; Glow (CT2) correction factor=0.
Series [4] has as its target T1, GSK3β. Briefly: biochemical. The source holds these as a separate data set.
Procedure: 100 nL/well compounds were pinned. […] Incubated at room temperature for 60 minutes. Added 20 μL/well of ADP-glo (Promega, V9103) with Combi, and incubated at room temperature for 40 minutes. Added 40 μL/well of ADP-glo (Promega, V9103) with Combi, incubated at room temperature for 30 minutes. Read on Envision for luminescence.
The target in series [5] is T2, GSK3α. Description: biochemical.
Procedure: as §1
Series [6] has as its target T1, GSK3β. The note with it: GSK3β over GSK3α.
The conditions of series [7]: for Mouse microsomes, % remaining: after 1 hour.
The nature of the next series: GSH stability. The series is classed as physicochemical. The note with it: after 48 hours. The protocol:
Stability was determined in the presence of PBS pH […] and 50 μM glutathione with 0.1% DMSO. Each compound was prepared in duplicate on six separate plates and allowed to equilibrate at room temperature with a 250 rpm orbital shake for 48 hours. One plate was removed at each time point (0, 2, 4, 8, 24, and 48 hours). […] Additionally, to the remaining material at each time point, acetonitrile was added to force dissolution of compound (to test for recovery of compound). An aliquot of this was also analyzed by UPLC-MS.

For series [8] the following is noted: in mice (mouse plasma), 5 hours.
The nature of the next series: PBS stability. The series is classed as physicochemical. Here is the method:
Stability was determined in the presence of PBS pH 7.4 with 0.1% DMSO. Each compound was prepared in duplicate on six separate plates and allowed to equilibrate at room temperature with a 250 rpm orbital shake for 48 hours. One plate was removed at each time point (0, 2, 4, 8, 24, and 48 hours). […] Additionally, to the remaining material at each time point, acetonitrile was added to force dissolution of compound (to test for recovery of compound). An aliquot of this was also analyzed by UPLC-MS.

For series [9], the target named is T1, GSK3β. Briefly: Mechanism of action: ATP competition at GSK3β (Lineweaver-Burk, IC50 at two ATP concentrations). The class given is biochemical. The note with it: versus ATP. Here is the method:
. IC50s were measured against GSK3β at two different ATP concentrations. […]

Where two headings read alike, the source gives them in different places.

T1 sequence (P49841 whole entry): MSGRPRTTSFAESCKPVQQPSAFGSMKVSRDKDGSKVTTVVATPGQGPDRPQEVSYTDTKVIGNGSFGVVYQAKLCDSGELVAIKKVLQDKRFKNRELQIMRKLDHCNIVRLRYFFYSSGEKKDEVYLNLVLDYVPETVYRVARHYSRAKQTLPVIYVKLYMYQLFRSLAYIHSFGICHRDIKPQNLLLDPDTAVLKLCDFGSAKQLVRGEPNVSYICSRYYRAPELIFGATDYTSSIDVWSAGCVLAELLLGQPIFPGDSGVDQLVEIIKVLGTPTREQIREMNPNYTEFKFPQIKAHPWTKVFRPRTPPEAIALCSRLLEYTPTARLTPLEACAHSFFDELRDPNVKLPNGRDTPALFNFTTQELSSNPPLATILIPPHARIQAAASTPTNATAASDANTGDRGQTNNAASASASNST
T2 sequence (P49840 whole entry): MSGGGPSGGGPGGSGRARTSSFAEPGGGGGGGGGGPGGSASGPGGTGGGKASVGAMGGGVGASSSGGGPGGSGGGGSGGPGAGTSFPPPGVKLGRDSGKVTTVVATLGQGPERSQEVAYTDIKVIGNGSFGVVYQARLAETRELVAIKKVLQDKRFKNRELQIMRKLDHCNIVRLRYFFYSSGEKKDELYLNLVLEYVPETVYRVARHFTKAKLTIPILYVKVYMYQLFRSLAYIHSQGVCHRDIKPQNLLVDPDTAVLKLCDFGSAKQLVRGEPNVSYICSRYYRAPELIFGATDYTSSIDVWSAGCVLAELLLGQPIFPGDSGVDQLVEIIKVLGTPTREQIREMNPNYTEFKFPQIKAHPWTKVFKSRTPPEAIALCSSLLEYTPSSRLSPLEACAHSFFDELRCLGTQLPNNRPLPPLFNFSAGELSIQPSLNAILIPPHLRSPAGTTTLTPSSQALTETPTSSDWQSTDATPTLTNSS
Procedure for TCF/LEF reporter: HEK293-pBARL cells were derived from HEK293 cells and they stably expressed a firefly-luciferase reporter gene driven by a promoter containing 12 copies of TCF/LEF binding sequences. These cells were maintained in DMEM and supplemented with 10% FBS and 1% penicillin-streptomycin (Invitrogen). Reporter gene assays were conducted in anti-biotic free media. […] These cells also contained a renilla-luciferase reporter gene driven by the ubiquitous EF1α promoter as a control. HEK293-pBarl reporter cell lines were seeded into 384-well culture plates (Corning) at 6000 cells/well. 24 hours after plating, cells were treated overnight with relevant compounds and assayed using DualGlo assay kit (Promega). Luminescent intensities were read by EnVision (PerkinElmer, Waltham, Mass.). Firefly luciferase intensity is normalized by renilla luciferase intensity.
Cells were cultured in 384 well plates to appropriate density (40 μl total plating volume). 24 hours after plating, cells were treated with 100 nl compounds. 24 hours after incubation with compounds (48 hours after plating), assay reagents were prepared by mixing Luciferase Assay solution with Luciferase substrate and Stop & Glo solution to Stop & Glo substrate (extra reagents can be aliquoted and frozen for future use and are stable for at least one freeze/thaw cycle). […] The plate was spun down and 10 minutes were allowed for signal stabilization. Luciferase signal on the Perkin Elmer EnVision using the following parameters: Distance between plate & detector (mm)=0.2; Measurement time(s)=0.1; Glow (CT2) correction factor=0. Once the initial data is secure, a volume of Stop & Glo was added equal to each well equal to the volume of Luciferase reagent added above (If 10 μl Luciferase Reagent was added, 10 μl Stop & Glo was also added). The plate was spun down and 10 minutes were allowed for signal stabilization. The plate was read on the EnVision using the same parameters detailed above.
Procedure for panel of 311 kinases: Briefly, a selection of compounds was screened against a panel of kinases at a single concentration of 10 μM. […] This was completed utilizing one of two assays depending on the kinase being examined.
Test compounds were dissolved in and diluted with dimethylsulfoxide (DMSO) to generate a 100× sample solution. These were then diluted to 4× sample solutions in assay buffer to make the final test compound solutions. Reference compounds for assay control were prepared similarly.
A solution of IMAP binding reagent (IMAP Screening Express kit; Molecular Devices) (60 μL) was added to each well and incubated for 30 minutes.
A solution of termination buffer (QuickScout Screening assist MSA; Carna Biosciences) (60 μL) was added to each well. The entire reaction mixture was then applied to a LabChip3000 system (Caliper Life Science) and the product and substrate peptide peaks were separated and quantified.
Procedure for phospho-Tau (Ser199): SH-SY5Y cells were maintained in DMEM supplemented with 10% heat-inactivated FBS and 1% penicillin-streptomycin (Invitrogen) unless otherwise stated. ELISA kits for phospho-Tau (Ser199) and total Tau detection were purchased from Invitrogen (KHB0041, and KHB7041 respectively). Briefly, SH-SY5Y cells were seeded at 50,000 cells/200 μL/well in 96 well plates and after overnight incubation, treated with various doses of chemical compounds at 0.2 μL/well. The next day cells were washed with PBS twice before being lysed in 100 μL Lysis buffer/well. 50 μL of cell lysate of each sample was transferred to an ELISA vial coated with the capture antibody, and the mixture was incubated at room temperature for 2 hours, before the supernatant was aspired, and each vial washed four times. 100 μL of detection antibody was then added to each well, incubated for 1 hour, and then washed four times. […] Data were scaled using the positive and neutral controls and fitted for IC50.
A standard protocol using an immunoassay kit to quantify total Tau protein and phospho-Tau (Ser199) protein in SH-SY5Y human neuroblastoma cells was employed. Human Tau (Total) ELISA kit (#KHB0041) and human phosphor-Tau (Ser199) ELISA kit were purchased from Invitrogen (#KHB7041)
50,000 cells were seeded in 200 μl per well in cell culture media (250,000 cells/ml). Cells were incubated overnight @ 37° C. Cells were induced with appropriate doses of inhibitors and incubated for approximately 24 hrs @ 37° C. Cell lysates were harvested by washing cells once with cold PBS and adding 100 μl cold lysis buffer and pipette up and down vigorously. Lysate was transferred to 96 well PCR plate and centrifuged at 4,000 rpm for 20 minutes at 4° C.
Well strips were warmed and inserted into the frame. 100μ of standard diluent buffer were loaded into ZERO wells, and 100 ul of each standard concentrations (both total Tau and pTau) were loaded into wells in duplicate. Samples were loaded to each well that would be analyzed for total Tau, 85 μl standard diluent buffer and 15 μl cell lysate were added. To each well that will be analyzed for pTau (Ser199) 50 μl standard diluent buffer+50 μl cell lysate were added. Plates were tapped gently on the side to mix. Certain wells were left empty for chromogen blank. Plates were covered and incubated for 2 hours at room temperature. Wells were aspirated 4 times (400 μl diluted wash buffer, left for 30 seconds, aspirated all wells; alternatively used automated plate washer and programmed in a 30 second hold between each cycle). 100 μl of detection antibody solution were added to each well except chromogen blanks. Anti-total Tau was added to wells being analyzed for total Tau, anti-pTau (Ser199) was added to wells being analyzed for pTau (Ser199), and plates were tapped gently on the side to mix. Plates were covered and incubated for 1 hour at room temperature, then wells were aspirated and washed 4 times as described above. 100 μl of anti-rabbit IgG HRP working solution (prepared ahead) were added to each well except chromogen blanks, and plates were covered and incubated for 30 minutes at room temperature, then wells were aspirated and washed 4 times as described above. 100 μl of stabilized chromogen were added to each well (the liquid turned blue). Plates were incubates for 30 minutes at room temperature in the dark, then 100 μl of stop solution were added to each well, and plates were tapped gently on the side to mix. Absorbance of each well was read at 450 nm (within 2 hours of adding stop solution).

For orientation: IC50 means the concentration needed to halve the response being measured. For `CC1(C)CC(=O)C2=C(C1)Nc1n[nH]c(C(F)(F)F)c1C2(C)c1ccccc1F` (stereo not drawn) [Compound 69], the figures for the EC50 with phospho-Tau (Ser199) and with TCF/LEF reporter were 2410 nM and 20800 nM, respectively. Also, the IC50 on GSK3β [1] and on GSK3α [2] was below 100 nM each time. The GSK3α fold selectivity on GSK3α [2] was found to be 1.7 fold.
As for `CC1(C)CC(=O)C2=C(C1)Nc1n[nH]c(C(F)(F)F)c1C2c1cccc(F)c1C(F)(F)F` (stereo not drawn) [Compound 63], the EC50 in the series with phospho-Tau (Ser199) is 1380 nM; in series [3], 3340 nM; in the series with TCF/LEF reporter, 4830 nM. Further, the IC50 on GSK3α [2] is below 100 nM.
As for `COc1ccccc1C1C2=C(CCCC2=O)Nc2n[nH]c(C)c21` (stereo not drawn) [Compound 46], the results for the IC50 at GSK3β [4], on GSK3β [1] and at GSK3α [5] were 1000 to 5000 nM, 101 to 1000 nM and 101 to 1000 nM, respectively. The EC50 in series [3] was above 50000 nM; with TCF/LEF reporter, above 25000 nM.
`CC1(C)CC(=O)C2=C(C1)Nc1n[nH]c(C(F)(F)F)c1C2c1ccccc1F` (stereo not drawn) [Compound 58]: the IC50 against GSK3β [4] was 101 to 1000 nM; on GSK3α [2], below 100 nM. The EC50 in the series with TCF/LEF reporter is above 25000 nM.
For `CC1(C)CC(=O)C2=C(C1)Nc1n[nH]c(C(F)(F)F)c1C2c1cccnc1` (stereo not drawn) [Compound 76], the results for the EC50 in the series with phospho-Tau (Ser199) and with TCF/LEF reporter were 2090 nM and 6190 nM, respectively. For the same compound, the IC50 on GSK3β [1] is below 100 nM; on GSK3α [5], 101 to 1000 nM.
For `COc1ccccc1C1C2=C(CC(C)(C)CC2=O)Nc2n[nH]c(-c3ccccc3)c21` (stereo not drawn) [Compound 51], the values for the IC50 against GSK3β [4], against GSK3β [1] and at GSK3α [5] were 1000 to 5000 nM, 101 to 1000 nM and 101 to 1000 nM, respectively. Moreover, the EC50 in series [3] is above 50000 nM; in the series with TCF/LEF reporter, above 25000 nM.
As for `CC1(C)CC(=O)C2=C(C1)Nc1n[nH]c(C(F)(F)F)c1C2c1ccccc1` (stereo not drawn) [Compound 52], the EC50 with phospho-Tau (Ser199) came to 507 nM; in series [3], 13100 nM; in the series on TCF/LEF reporter, 9320 nM. Besides, on GSK3α [2], the 50% inhibitory concentration (IC50) is below 100 nM.
As for `CC1(C)CC(=O)C2=C(C1)Nc1n[nH]c(C(F)(F)F)c1C2(C)c1ccccc1` (racemic) [Compound 68], the EC50 in the series with phospho-Tau (Ser199) was 1580 nM. Also, on GSK3β [6], the GSK3β fold selectivity is recorded as 2.9 fold.
In the case of `CC1(C)CC(=O)C2=C(C1)Nc1n[nH]c(C(F)(F)F)c1C2c1ccc(F)cc1C(F)(F)F` (stereo not drawn) [Compound 65], the IC50 against GSK3β [4], against GSK3β [1] and against GSK3α [5] was 101 to 1000 nM throughout. The EC50 in the series on TCF/LEF reporter was above 25000 nM.
On to `Cc1[nH]nc2c1C(C1CC1)C1=C(CC(C)(C)CC1=O)N2` (stereo not drawn) [Compound 43], for which the EC50 in the series with phospho-Tau (Ser199) is above 30000 nM; in [3], above 50000 nM; in the series on TCF/LEF reporter, above 25000 nM. Besides, the IC50 on GSK3β [4], against GSK3β [1] and on GSK3α [5] was 1000 to 5000 nM in each case.
On to `CCc1[nH]nc2c1C(c1ccccc1OC)C1=C(CC(C)(C)CC1=O)N2` (stereo not drawn) [Compound 48], for which the figures for the IC50 against GSK3β [4] and at GSK3α [2] were 101 to 1000 nM and below 100 nM, respectively. Moreover, the EC50 in series [3] was 24600 nM; with TCF/LEF reporter, 16200 nM.
Regarding `Cc1[nH]nc2c1C(C)C1=C(CC(C)(C)CC1=O)N2` (stereo not drawn) [Compound 42], the figures for the IC50 against GSK3β [4], against GSK3β [1] and against GSK3α [5] were 1000 to 5000 nM, 101 to 1000 nM and 101 to 1000 nM, respectively. The EC50 in [3] is above 50000 nM; in the series with TCF/LEF reporter, above 25000 nM.
In the case of `CC1(C)CC(=O)C2=C(C1)Nc1n[nH]c(C(F)(F)F)c1C2c1cc(F)ccc1OC(F)(F)F` (stereo not drawn) [Compound 61], the IC50 at GSK3β [4], on GSK3β [1] and against GSK3α [5] was 101 to 1000 nM in each case. Besides, the EC50 in the series on TCF/LEF reporter is above 25000 nM.
On to `Cc1[nH]nc2c1C(C1CCCCC1)C1=C(CC(C)(C)CC1=O)N2` (stereo not drawn) [compound 44], for which the EC50 was above 50000 nM in series [3] and above 25000 nM with TCF/LEF reporter.
Compound `Cc1[nH]nc2c1C(C)(c1ccccc1)C1=C(CC(C)(C)CC1=O)N2` (stereo not drawn) [Compound 67] yielded a GSK3α fold selectivity on GSK3α [2] of 5.2 fold. The “Mouse microsomes, % remaining” value in series [7] is 32%. In series [7] (in mice, 60 min), the “Microsomal stability 60 min” value amounted to 32.
With `CC1(C)CC(=O)C2=C(C1)Nc1n[nH]c(Br)c1C2c1ccccc1` (stereo not drawn) [Compound 74], the EC50 in the series on phospho-Tau (Ser199) was 2090 nM; in the series with TCF/LEF reporter it was 6190 nM. The IC50 against GSK3β [1] and at GSK3α [2] was below 100 nM throughout.
Take `Cc1c[nH]c(-c2cnc(NCCNc3ccc(C#N)cn3)nc2-c2ccc(Cl)cc2Cl)n1` [CHIR99021, reference compound]: in the series with panel of 311 kinases (panel of 311 kinases, 10 μM), the “Number of kinases inhibited greater than 50% at 10 μM” value is recorded as 21.
For the compound `COc1ccccc1C1C2=C(CC3(CCCCC3)CC2=O)Nc2n[nH]c(C)c21` (stereo not drawn) [Compound 56], the IC50 against GSK3β [4], against GSK3β [1] and on GSK3α [5] was 101 to 1000 nM in each case. Further, the results for the EC50 (in [3]; in the series with TCF/LEF reporter) were above 50000 nM and above 25000 nM, respectively.
Turning to `CC1(C)CC(=O)C2=C(C1)Nc1n[nH]c(C(F)(F)F)c1C2c1cc(F)ccc1F` (stereo not drawn) [Compound 60], the IC50 on GSK3β [4], against GSK3β [1] and on GSK3α [5] was 101 to 1000 nM throughout. Moreover, the EC50 in the series with TCF/LEF reporter is above 25000 nM.
As for `COc1ccccc1C1C2=C(CCC(C)(C)C2=O)Nc2n[nH]c(C)c21` (stereo not drawn) [Compound 45], the IC50 against GSK3β [4], at GSK3β [1] and against GSK3α [5] was 101 to 1000 nM throughout. For the same compound, the EC50 in series [3] is above 50000 nM; in the series on TCF/LEF reporter, above 25000 nM.
On to `COc1ccccc1C1C2=C(CC(C)(C)CC2=O)Nc2n[nH]c(C(C)C)c21` (stereo not drawn) [Compound 49], for which the IC50 against GSK3β [4] and at GSK3α [5] was 101 to 1000 nM in each case. Further, the EC50 was above 50000 nM in [3] and above 25000 nM in the series on TCF/LEF reporter.
Turning to `COc1ccccc1C1C2=C(CC(C)(C)CC2=O)Nc2n[nH]c(C(C)(C)C)c21` (stereo not drawn) [Compound 50], the IC50 against GSK3β [4] was 101 to 1000 nM; against GSK3β [1] it was 101 to 1000 nM; against GSK3α [5], 1000 to 5000 nM. Further, the EC50 is above 50000 nM in series [3] and above 25000 nM with TCF/LEF reporter.
On to `COc1ccccc1[C@H]1C2=C(CC(C)(C)CC2=O)Nc2n[nH]c(C)c21` [Compound 21], for which the results for the IC50 at GSK3β [4], at GSK3β [1] and at GSK3α [5] were 1000 to 5000 nM, 1000 to 5000 nM and 101 to 1000 nM, respectively.
As for `COc1ccccc1C1C2=C(CC(C)(C)CC2=O)Nc2n[nH]c(C(F)(F)F)c21` (racemic) [racemic probe, 4-(2-methoxyphenyl)-7,7-dimethyl-3-(trifluoromethyl)-6,7,8,9-tetrahydro-2H-pyrazolo[3,4-b]quinolin-5(4H)-one], the “Mouse microsomes, % remaining” value in series [7] is reported as below 1%.
`CC1(C)CC(=O)C2=C(C1)Nc1n[nH]c(C(F)(F)F)c1C2c1ccccc1C(F)(F)F` (stereo not drawn) [Compound 62]: the EC50 worked out at 652 nM in the series on phospho-Tau (Ser199), 4230 nM in series [3] and 3930 nM in the series on TCF/LEF reporter.
Take `COc1ccccc1[C@@H]1C2=C(CC(C)(C)CC2=O)Nc2n[nH]c(C(F)(F)F)c21` [Compound 54, (R)-4-(2-methoxyphenyl)-7,7-dimethyl-3-(trifluoromethyl)-6,7,8,9-tetrahydro-2H-pyrazolo[3,4-b]quinolin-5(4H)-one]: in the series “GSH stability”, the “Glutathione (GSH) stability, % remaining” value came out at 99%. In addition, the “Plasma stability % remaining” value in series [8] is 99%. In addition, the recovery at 48 h in the series “PBS stability” (PBS, pH 7.4, after 48 hours of incubation, read-out: PBS stability, % still present (acetonitrile recovery)) was above 95%. Moreover, the “Concentration in PBS (0.1% DMSO) over time” value in the series “PBS stability” (over 48 hours, reflects kinetic solubility) is “about 200%”. Further, at GSK3β [9], the “Mode of inhibition of GSK3β” value is reported as “ATP-competitive inhibition”. Besides, the “Percent of the kinome (311 kinases) inhibited” value in the series with panel of 311 kinases is 2.6%. In addition, in series [7] (M), the “Microsomal Stability” value is recorded as “M: 0%”.

Values taken from patent publication US20160375006A1, “USES OF PARALOG-SELECTIVE INHIBITORS OF GSK3 KINASES” (priority 2012, published 2016).
